What follows are molecules tested on human hepatoma Huh-7 cell line harboring a HCV replicon (assay: HCV replicon assay (inhibition of viral replication, luciferase readout)). Conditions: Hepatitis C virus, 72 h, Huh-7 HCV replicon cells, 3 days incubation.
Type: cell-based
Method: The anti-HCV activity of the compounds of this invention was tested in a human hepatoma Huh-7 cell line harboring a HCV replicon. The assay comprised the following steps:
Step 1: Compound Preparation and Serial Dilution.
Serial dilution was performed in 100% DMSO in a 384-well plate. A solution containing a compound at 225-fold concentration of the starting final serial dilution concentration was prepared in 100% DMSO and 15 μL added to the pre-specified wells in column 3 or 13 of a polypropylene 384-well plate. The rest of the 384-well plate was filled with 10 μL 100% DMSO except for columns 23 and 24, where 10 μL of 500 μM a HCV protease inhibitor (ITMN-191) in 100% DMSO was added. The HCV protease inhibitor was used a control of 100% inhibition of HCV replication. The plate was then placed on a Biomek FX Workstation to start the serial dilution. The serial dilution was performed for ten cycles of 3-fold dilution from column 3 to 12 or from column 13 to 22.
Step 2: Cell Culture Plate Preparation and Compound Addition
To each well of a black polypropylene 384-well plate, 90 μL of cell media containing 1600 suspended Huh-7 HCV replicon cells was added with a Biotek uFlow Workstation. A volume of 0.4 μL of the compound solution was transferred from the serial dilution plate to the cell culture plate on a Biomek FX Workstation. The DMSO concentration in the final assay condition was 0.44%. The plates were incubated for 3 days at 37° C. with 5% CO2 and 85% humidity.
Step 3: Detection of Cytotoxicity and Inhibition of Viral Replication
a) Assessment of cytotoxicity: The media in the 384-well cell culture plate was aspirated with a Biotek EL405 plate-washer. A volume of 50 μL of a solution containing 400 nM Calcein AM in 100% PBS was added to each well of the plate with a Biotek uFlow Workstation. The plate was incubated for 30 minutes at room temperature before the fluorescence signal ([…]) was measured with a Perkin Elmer Envision Plate Reader.
b) Assessment of inhibition of viral replication: The calcein-PBS solution in the 384-well cell culture plate was aspirated with a Biotek EL405 plate-washer. A volume of 20 μL of Dual-Glo luciferase buffer (Promega, Dual-Glo Luciferase Assay Reagent, cat. #E298B) was added to each well of the plate with a Biotek uFlow Workstation. The plate was incubated for 10 minutes at room temperature. A volume of 20 μL of a solution containing 1:100 mixture of Dual-Glo Stop & Glo substrate (Promega, Dual-Glo Luciferase Assay Reagent, cat. #E313B) and Dual-Glo Stop & Glo buffer (Promega, Dual-Glo Luciferase Assay Reagent, cat. #E314B) was then added to each well of the plate with a Biotek uFlow Workstation. The plate was incubated at room temperature for 10 minutes before the luminescence signal was measured with a Perkin Elmer Envision Plate Reader.
The percent cytotoxicity was determined by calcein AM conversion to fluorescent product. The average fluorescent signal from the DMSO control wells was defined as 100% nontoxic. The individual fluorescent signal from testing compound treated well was divided by the average signal from DMSO control wells and then multiplied by 100% to get the percent viability. The percent anti-HCV replication activity was determined by the luminescence signal from the testing well compared to DMSO control wells. The background signal was determined by the average luminescence signal from the HCV protease inhibitor treated wells and was subtracted from the signal from the testing wells as well as the DMSO control wells. Following 3-fold serial dilutions, the EC50 and CC50 values were calculated by fitting % inhibition at each concentration to the following equation: % inhibition=100%/[EC50/[I])^b+1]
Where b is Hill's coefficient. See, for reference, Hill, A. V., The Possible Effects of the Aggregation of the Molecules of Hæmoglobin on its Dissociation Curves, J. Physiol. 40: iv-vii. (1910). […]

| Molecule | inhibition at 2 µM [%] |
| --- | --- |
| C[C@@H]1CC[C@@H](C(=O)N(c2cc(C#CC(C)(C)C)sc2C(=O)O)[C@H]2CC[C@@H](OC3CCOC3)CC2)[C@@H](O)C1 (single isomer, unassigned) [Compound 228] | 99.9 |
| CC1=CCC(C(=O)N(c2cc(C#CC(C)(C)C)sc2C(=O)O)[C@H]2CC[C@H](O[C@H]3CCOC3)CC2)[C@@H](C)C1 (single isomer, unassigned) [Compound 302, 5-(3,3-dimethyl-but-1-ynyl)-3-{(4,6S-dimethyl-cyclohex-3-enecarbonyl)-[4-(tetrahydro-furan-3S-yloxy)-trans-cyclohexyl]-amino}-thiophene-2-carboxylic acid] | 100 |
| CC1=CCC(C(=O)N(c2cc(C#CC(C)(C)C)sc2C(=O)O)[C@H]2CC[C@H](O[C@H]3CCOC3)CC2)[C@H](C)C1 (single isomer, unassigned) [Compound 303] | 99.9 |
| CC1=CCC(C(=O)N(c2cc(C#CC(C)(C)C)sc2C(=O)O)[C@H]2CC[C@H](O[C@@H]3CCOC3)CC2)[C@H](C)C1 (single isomer, unassigned) [Compound 305, 5-(3,3-dimethyl-but-1-ynyl)-3-{(4,6R-dimethyl-cyclohex-3-enecarbonyl)-[4-(tetrahydro-furan-3R-yloxy)-trans-cyclohexyl]-amino}-thiophene-2-carboxylic acid] | 100 |
| CC1=CCC(C(=O)N(c2cc(C#CC(C)(C)C)sc2C(=O)O)[C@H]2CC[C@H](O[C@@H]3CCOC3)CC2)[C@@H](C)C1 (single isomer, unassigned) [Compound 307, 5-(3,3-Dimethyl-but-1-ynyl)-3-{(4,6S-dimethyl-cyclohex-3-enecarbonyl)-[4-(tetrahydro-furan-3R-yloxy)-trans-cyclohexyl]-amino}-thiophene-2-carboxylic acid] | 100 |
| CC(C)(C)C#Cc1cc(N(C(=O)[C@H]2CC[C@H](C)CC2)[C@H]2CC[C@H](Oc3ccccn3)CC2)c(C(=O)O)s1 [Compound 1, 5-(3,3-Dimethyl-but-1-ynyl)-3-{(trans-4-methyl-cyclohexanecarbonyl)-[trans-4-(pyridin-2-yloxy)-cyclohexyl]-amino}-thiophene-2-carboxylic acid] | 99.8 |
| CC(C)(C)C#Cc1cc(N(C(=O)[C@H]2CC[C@H](C)CC2)[C@H]2CC[C@H](Oc3cnccn3)CC2)c(C(=O)O)s1 [Compound 2, 5-(3,3-Dimethyl-but-1-ynyl)-3-{(trans-4-methyl-cyclohexanecarbonyl)-[trans-4-(pyrazin-2-yloxy)-cyclohexyl]-amino}-thiophene-2-carboxylic acid] | 99.6 |
| Cc1ccc(O[C@H]2CC[C@H](N(c3cc(C#CC(C)(C)C)sc3C(=O)O)C(=O)[C@H]3CC[C@H](C)CC3)CC2)nn1 [Compound 3, 5-(3,3-Dimethyl-but-1-ynyl)-3-{(trans-4-methyl-cyclohexanecarbonyl)-[trans-4-(6-methyl-pyridazin-3-yloxy)-cyclohexyl]-amino}-thiophene-2-carboxylic acid] | 100 |
| CC(C)(C)C#Cc1cc(N(C(=O)[C@H]2CC[C@H](C)CC2)[C@H]2CC[C@H](Oc3ncccn3)CC2)c(C(=O)O)s1 [Compound 4, 5-(3,3-Dimethyl-but-1-ynyl)-3-{(trans-4-methyl-cyclohexanecarbonyl)-[trans-4-(pyrimidin-2-yloxy)-cyclohexyl]-amino}-thiophene-2-carboxylic acid] | 99.9 |
| CC(C)(C)C#Cc1cc(N(C(=O)[C@H]2CC[C@H](C)CC2)[C@H]2CC[C@H](Oc3cccnc3)CC2)c(C(=O)O)s1 [Compound 5, 5-(3,3-Dimethyl-but-1-ynyl)-3-{(trans-4-methyl-cyclohexanecarbonyl)-[trans-4-(pyridin-3-yloxy)-cyclohexyl]-amino}-thiophene-2-carboxylic acid] | 99.8 |
| CC(C)(C)C#Cc1cc(N(C(=O)[C@H]2CC[C@H](C)CC2)[C@H]2CC[C@H](Oc3cccc(S(C)(=O)=O)n3)CC2)c(C(=O)O)s1 [Compound 6, 5-(3,3-Dimethyl-but-1-ynyl)-3-[[trans-4-(6-methanesulfonyl-pyridin-2-yloxy)-cyclohexyl]-(trans-4-methyl-cyclohexanecarbonyl)-amino]-thiophene-2-carboxylic acid] | 99.9 |
| Cc1ccc(O[C@H]2CC[C@H](N(c3cc(C#CC(C)(C)C)sc3C(=O)O)C(=O)[C@H]3CC[C@H](C)CC3)CC2)cn1 [Compound 7, 5-(3,3-Dimethyl-but-1-ynyl)-3-{(trans-4-methyl-cyclohexanecarbonyl)-[trans-4-(6-methyl-pyridin-3-yloxy)-cyclohexyl]-amino}-thiophene-2-carboxylic acid] | 99.8 |
| Cc1cccc(O[C@H]2CC[C@H](N(c3cc(C#CC(C)(C)C)sc3C(=O)O)C(=O)[C@H]3CC[C@H](C)CC3)CC2)n1 [Compound 8, 5-(3,3-Dimethyl-but-1-ynyl)-3-{(trans-4-methyl-cyclohexanecarbonyl)-[trans-4-(6-methyl-pyridin-2-yloxy)-cyclohexyl]-amino}-thiophene-2-carboxylic acid] | 96.7 |
| CC(C)(C)C#Cc1cc(N(C(=O)[C@H]2CC[C@H](C)CC2)[C@H]2CC[C@H](Oc3ccc(C#N)cn3)CC2)c(C(=O)O)s1 [Compound 9, 3-[[trans-4-(5-Cyano-pyridin-2-yloxy)-cyclohexyl]-(trans-4-methyl-cyclohexanecarbonyl)-amino]-5-(3,3-dimethyl-but-1-ynyl)-thiophene-2-carboxylic acid] | 99.3 |
| CC(C)(C)C#Cc1cc(N(C(=O)[C@H]2CC[C@H](C)CC2)[C@H]2CC[C@H](Oc3ccc(C(F)(F)F)cn3)CC2)c(C(=O)O)s1 [Compound 10, 5-(3,3-Dimethyl-but-1-ynyl)-3-{(trans-4-methyl-cyclohexanecarbonyl)-[trans-4-(5-trifluoromethyl-pyridin-2-yloxy)-cyclohexyl]-amino}-thiophene-2-carboxylic acid] | 56.2 |

Same assay, conditions: Huh-7 HCV replicon cells, 3 days incubation

| Molecule | % inhibition at 2μM [%] |
| --- | --- |
| 5-(3,3-Dimethyl-but-1-ynyl)-3-{(trans-4-methyl-cyclohexanecarbonyl)-[trans-4-(1-oxy-pyridin-3-yloxy)-cyclohexyl]-amino}-thiophene-2-carboxylic acid [Compound 24] | 99.9 |
| 5-(3,3-dimethylbut-1-ynyl)-3-((1r,4R)-4-methyl-N-((1s,4S)-4-(oxetan-3-yloxy)cyclohexyl)cyclohexanecarboxamido)-5-(2-(1-(trifluoromethyl)cyclopropyl)ethynyl)thiophene-2-carboxylic acid [Compound 347] | 99.97 |
| CC1=CCC(C(=O)N(c2cc(C#CC(C)(C)C)sc2C(=O)O)[C@H]2CC[C@H](O[C@@H]3CCOC3)CC2)[C@H](C)C1 (single isomer, unassigned) [Compound 306, 5-(3,3-Dimethyl-but-1-ynyl)-3-{(4,6R-dimethyl-cyclohex-3-enecarbonyl)-[4-(tetrahydro-furan-3R-yloxy)-trans-cyclohexyl]-amino}-thiophene-2-carboxylic acid] | 99.99 |
| CC1=CCC(C(=O)N(c2cc(C#CC(C)(C)C)sc2C(=O)O)[C@H]2CC[C@H](O[C@@H]3CCOC3)CC2)[C@@H](C)C1 (single isomer, unassigned) [Compound 308, 5-(3,3-Dimethyl-but-1-ynyl)-3-{(4,6S-dimethyl-cyclohex-3-enecarbonyl)-[4-(tetrahydro-furan-3R-yloxy)-trans-cyclohexyl]-amino}-thiophene-2-carboxylic acid] | 99.99 |

From US8569302B2, “Inhibitors of flaviviridae viruses” (Gilead Sciences, Inc., priority 2009, dated 2013)
